Twelve molecules from patent US9790173B2, “Alpha-7 nicotinic acetylcholine receptor modulators and uses thereof-I” (MERCK SHARP & DOHME CORP., priority 2012, dated 2017) can be followed below.

In series [1] the test system is mice. The experiment in a line: T-maze Continuous Alternation Task (T-CAT), scopolamine-induced cognitive impairment. Format: in vivo. To be noted: mouse; dosed orally at 10 mg/kg; scopolamine-induced deficit. An excerpt: The T-maze Continuous Alternation Task (T-CAT) measures spontaneous alternation, which is the innate tendency of mice to alternate free choices in a T-maze over a series of successive runs. This sequential procedure relies on working memory and is sensitive to various pharmacological manipulations affecting memory processes.
The T-maze apparatus is made of gray Plexiglas with a main stem (55 cm long×10 cm wide×25 cm high) and two arms (30 cm long×10 cm wide×25 cm high) positioned at 90 degree angle relative to the main stem. A start box (15 cm long×10 cm wide) is separated from the main stem by a sliding door. Sliding doors are also provided to close specific arms during the forced-choice alternation task.
The experimental protocol consists of one single session, which starts with 1 “forced-choice” trial, followed by 14 “free-choice” trials. In the first “forced-choice” trial, the animal is confined for 5 s in the start arm and then it is released while either the left or right goal arm is blocked by a sliding door. The animal will negotiate the maze, eventually enter the open goal arm, and return to the start position. Immediately after the return to the start position, the left or right goal door is opened and the animal is allowed to choose freely between the left and right goal arm (“free choice” trials). The animal is considered to have entered an arm when it places four paws in the arm. A session is terminated and the animal is removed from the maze as soon as 14 free-choice trials have been performed or 10 minutes have elapsed, whichever event occurs first. The percentage of alternation over the 14 free-choice trials is determined for each mouse and is used as an index of working memory performance. This percentage is defined as entry in a different arm of the T-maze over successive visits (i.e., left-right-left-right, etc).
Scopolamine administered 20 minutes prior the initiation of the T-maze session is used to induce disruption in the spontaneous alternation of mice. Test compounds are administered 60 minutes prior the start of the T-maze session in order to evaluate their ability to reverse the scopolamine effect.
The apparatus is cleaned between each animal using alcohol (70°). Urine and faeces are removed from the maze. During the trials, animal handling and the visibility of the operator are minimized as much as possible.
The compounds were dosed orally at 10 mg/kg.

The target of series [2] is T1, rat α7 nAChRs (Rattus norvegicus, UniProt Q05941).
T1 construct: expressed in transfected cells; host or cells: GH4C1 cells (rat pituitary line) stably expressing α7 nAChR
T1 sequence (Q05941 23-502): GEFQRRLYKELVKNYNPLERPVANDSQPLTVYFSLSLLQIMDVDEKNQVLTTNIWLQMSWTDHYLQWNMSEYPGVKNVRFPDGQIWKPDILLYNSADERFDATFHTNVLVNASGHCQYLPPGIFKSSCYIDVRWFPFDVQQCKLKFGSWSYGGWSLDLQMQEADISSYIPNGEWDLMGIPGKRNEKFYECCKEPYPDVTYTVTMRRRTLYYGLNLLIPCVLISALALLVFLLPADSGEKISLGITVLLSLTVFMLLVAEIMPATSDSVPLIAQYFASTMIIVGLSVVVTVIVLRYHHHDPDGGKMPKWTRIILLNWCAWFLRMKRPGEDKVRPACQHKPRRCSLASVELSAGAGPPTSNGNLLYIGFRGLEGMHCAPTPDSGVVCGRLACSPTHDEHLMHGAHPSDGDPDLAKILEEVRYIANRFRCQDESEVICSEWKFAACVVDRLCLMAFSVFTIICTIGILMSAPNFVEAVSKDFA
The experiment in a line: Automated planar patch clamp (Patchliner) electrophysiology, α7 nAChR PAM activity. To be noted: for activation at 3 µM: GH4-C1, 3 μM compound in the presence of acetylcholine, GH4C1 cells expressing rat α7 nAChRs, peak current, read-out: Peak potentiation at 3 μM compound; for Type I or Type II: modulator type based on the electrophysiology trace. On the set-up: key to Type I or Type II: I: Type 1 predominately affects the peak current; Type II modulators affect the peak current and also delay the desensitization of the receptor. Format: cell-based. How it is done:
Tested compounds were prepared by serial dilutions of 10 mM stock solution in DMSO to concentrations of the compound 1000 times higher than its final concentration. The DMSO stock solutions were then diluted 1:100 in the recording buffer bringing DMSO concentration to 1%. These intermediate solutions were further diluted 10 times with buffer to obtain final concentrations and lower DMSO concentration to 0.1%. […]
Compounds of the invention may be evaluated by electrophysiology using a Patchliner® (Nanion Technologies GmbH, Germany), an automated planar patch-clamp platform of medium throughput was used as a first step in electrophysiological assessment of α7 nAChR positive allosteric modulators (PAMs).
Briefly, intracellular (KCl—50 mM, NaCl—10 mM, KF—60 mM, EGTA—20 mM, HEPES—10 mM, pH—7.2, 285 mOsmol) and extracellular (NaCl—140 mM, KCl—4 mM, CaCl2—2 mM, MgCl2—1 mM, HEPES—10 mM, D-Glucose—5 mM, pH—7.4, 298 mOsmol) solutions were automatically pipetted onto NPC-16 chip (medium resistance ˜2.5-2.6 MΩ). Suspension of GH4C1 cells expressing rat α7 nAChRs was introduced in 4 wells of a medium resistance chip and suction was applied to attract cells in the holes. The extracellular solution was subsequently exchanged to high calcium solution (NaCl—80 mM, KCl—3 mM, CaCl2—45 mM, HEPES—10 mM, pH—7.4, 298 mOsmol) followed by gigaohm seal formation and obtaining whole-cell configuration. The rest of protocol was carried out in the high-calcium recording solution. Holding potential was −70 mV throughout the protocol. A control response to 60 or 100 μM of ACh was obtained first. Next, a cell was pre-incubated with compound of interest at 3 μM for ˜30 s after which the compound was co-applied with acetylcholine.
Amplitude of the responses was measured in HEKA Patchmaster software (HEKA Elektronik, Germany) and percentage of potentiation calculated. Recording was repeated […] a minimum of two replicates had been obtained per compound.
Compounds shown in Table 1 were evaluated by automated planar patch clamp on the Patchliner® as described in Example P2.1. […] The compounds are designated either as Type I or Type II modulators based on the electrophysiology trace. Type 1 predominately affects the peak current. Type II modulators affect the peak current and also delay the desensitization of the receptor.
(In general: Patch clamp records ionic current or voltage across a cell membrane.)

Regarding `NS(=O)(=O)c1ccc([C@H]2C[C@@H]2CNc2ccc(F)cc2)cc1` [Example 3, ±trans 4-(2-{[(4-fluorophenyl)amino]methyl}cyclopropyl)benzenesulfonamide], the “T-maze % control at 10 mg/kg” value in series [1] is recorded as 62 % control. Further, in series [2], the activation at 3 µM came to 969% and the “Type I or Type II” value was “I”.
`CC1(C)[C@H](CNc2ccc(F)cc2)[C@H]1c1ccc(S(N)(=O)=O)cc1` [Example 13, ±trans 4-[3-{[(4-fluorophenyl)amino]methyl}-2,2-dimethylcyclopropyl]benzenesulfonamide]: the “T-maze % control at 10 mg/kg” value in series [1] is on record as 80 % control. Further, the “Type I or Type II” value in series [2] is on record as “II”.
With `CC1(C)[C@@H](CNc2ccc(F)cc2C(F)(F)F)[C@@H]1c1ccc(S(N)(=O)=O)cc1` [Example 17, 4-[(1S,3S)-3-({[4-fluoro-2-(trifluoromethyl)phenyl]amino}methyl)-2,2-dimethylcyclopropyl]benzenesulfonamide], in series [1], the “T-maze % control at 10 mg/kg” value was determined as 100 % control. Further, the “Type I or Type II” value in series [2] is recorded as “I”.
For the molecule `COc1ccc(Cl)cc1NC[C@@H]1[C@@H](c2ccc(S(N)(=O)=O)cc2)C1(C)C` [Example 20, 4-[(1R,3R)-3-{[(5-chloro-2-methoxyphenyl)amino]methyl}-2,2-dimethylcyclopropyl]benzenesulfonamide], the “T-maze % control at 10 mg/kg” value in series [1] came out at 100 % control. In addition, the “Type I or Type II” value in series [2] is reported as “I”.
`COc1ccc(Cl)cc1NC[C@H]1[C@H](c2ccc(S(N)(=O)=O)cc2)C1(C)C` [Example 21, 4-[(1S,3S)-3-{[(5-chloro-2-methoxyphenyl)amino]methyl}-2,2-dimethylcyclopropyl]benzenesulfonamide]: the “T-maze % control at 10 mg/kg” value in series [1] is 100 % control. In series [2], the “Type I or Type II” value was “II”.
A word on the melting point: it is the temperature of the solid-liquid transition. For `Cc1cc(F)c(F)cc1NC[C@@H]1[C@@H](c2ccc(S(N)(=O)=O)cc2)C1(C)C` [Example 30, 4-[(1R,3R)-3-{[(4,5-difluoro-2-methylphenyl)amino]methyl}-2,2-dimethylcyclopropyl]benzenesulfonamide], the melting point is 210 to 212 °C. Further, the “T-maze % control at 10 mg/kg” value in series [1] is recorded as 70 % control. Also, in series [2], the activation at 3 µM was determined as 419% and the “Type I or Type II” value was “I”.
The molecule `CC1(C)[C@H](CNc2cc(Cl)ccc2C(F)(F)F)[C@H]1c1ccc(S(N)(=O)=O)cc1` [Example 45, ±trans 4-[3-({[5-chloro-2-(trifluoromethyl)phenyl]amino}methyl)-2,2-dimethylcyclopropyl]benzenesulfonamide] showed a melting point of 124 to 126 °C. The “Type I or Type II” value in series [2] was “I”.
Turning to `Cc1cccnc1NC[C@@H]1[C@@H](c2ccc(S(N)(=O)=O)cc2)C12CCCC2` [Example 49, ±trans 4-[2-{[(3-methylpyridin-2-yl)amino]methyl}spiro[2.4]hept-1-yl]benzenesulfonamide], the melting point lay in the range of 82 to 84 °C. Moreover, in series [2], the “Type I or Type II” value was “II”.
Turning to `CC1(C)[C@@H](CNc2ccc(F)cc2OC(F)F)[C@@H]1c1ccc(S(N)(=O)=O)cc1` [Example 50, 4-[(1S,3S)-3-({[2-(difluoromethoxy)-4-fluorophenyl]amino}methyl)-2,2-dimethylcyclopropyl]benzenesulfonamide], the “T-maze % control at 10 mg/kg” value in series [1] was 77 % control. Also, in series [2], the “Type I or Type II” value is “II”.
As to `CC1(C)[C@H](CNc2ccc(F)cc2OC(F)F)[C@H]1c1ccc(S(N)(=O)=O)cc1` [Example 51, 4-[(1R,3R)-3-({[2-(difluoromethoxy)-4-fluorophenyl]amino}methyl)-2,2-dimethylcyclopropyl]benzenesulfonamide], in series [1], the “T-maze % control at 10 mg/kg” value worked out at 81 % control. Further, in series [2], the activation at 3 µM is 171% and the “Type I or Type II” value is reported as “I”.
As to `NS(=O)(=O)c1ccc([C@H]2C[C@@H]2CNc2cc(F)ccc2OC(F)(F)F)cc1` [Example 52, 4-[(1S,2S)-2-({[5-fluoro-2-(trifluoromethoxy)phenyl]amino}methyl)cyclopropyl]benzenesulfonamide], the melting point fell in the range of 115 to 118 °C. Moreover, the “Type I or Type II” value in series [2] is “II”.
Molecule `COc1ccc(Cl)cc1NC[C@H]1C[C@@H]1Cc1ccc(S(N)(=O)=O)cc1` [Example 54, ±trans 4-{[-2-{[(5-chloro-2-methoxyphenyl)amino]methyl}cyclopropyl]methyl}benzenesulfonamide] had a melting point of 126 to 128 °C. In series [2], the activation at 3 µM stood at 574% and the “Type I or Type II” value was “I”.
